# Experimental data from patent US8604016B2, “Heterocyclic inhibitors of glutaminase” (Calithera Biosciences Inc., priority 2011, dated 2013).
# pIC50: −log10 of the molar value.
# Biological target: recombinant form of Glutaminase 1 (GAC) (Homo sapiens, UniProt O94925)
# Experiment: Recombinant Enzyme Assay (GAC coupled to GDH, NADH absorbance, no preincubation)
# Format: biochemical
# Conditions: no preincubation; read-out: GAC Delta N2 IC50 no preinc
# Description: Enzymatic reaction was started with the addition of 50 μL of enzyme solution (50 mM Tris-HCl pH 8.0, 0.2 mM EDTA, 150 mM K2HPO4, 0.1 mg/ml BSA, 1 mM DTT, 10 ppm antifoam, 4 units/ml GDH, 4 mM adenosine diphosphate, and 4 nM GAC) and read in a Molecular Devices M5 plate reader at 20° C. The plate reader was configured to read absorbance (λ=340 nm) in kinetic mode for 15 minutes. Data was recorded as milli-absorbance units per minute and slopes were compared to a control compound and a DMSO-only control on the same plate. Compounds with slopes less than the DMSO control were considered inhibitors and plate variability was assessed using the control compound.
row,Compound,pIC50
1,O=C(CC1CC1)Nc1nnc(CCCCc2nnc(NC(=O)CC3CC3)s2)s1 [Compound 85],5.82
2,CN(C)C(Cc1ccccc1)C(=O)Nc1nnc(CCCCc2nnc(NC(=O)C(Cc3ccccc3)N(C)C)s2)s1 (stereo not drawn) [Compound 89],< 4.70
3,O=C(Nc1nnc(CCCCc2nnc(NC(=O)[C@@H]3CC3c3ccccc3)s2)s1)C1CC1c1ccccc1 (stereo partly drawn) [Compound 90],< 4.70
4,O=C(Nc1nnc(CCCCc2nnc(NC(=O)C3CC(O)c4ccccc43)s2)s1)C1CC(O)c2ccccc21 (stereo not drawn) [Compound 94],6.55
5,O=C(Nc1nnc(CCSCCc2nnc(NC(=O)C3CCOC3)s2)s1)C1CCOC1 (stereo not drawn) [Compound 95],5.54
6,CC(=O)OC(C)(C)C(=O)Nc1nnc(CCCCc2nnc(NC(=O)C(C)(C)OC(C)=O)s2)s1 [Compound 96],< 4.70
7,CC1(C)OC(=O)[C@@H](CC(=O)Nc2nnc(CCCCc3nnc(NC(=O)C[C@H]4OC(C)(C)OC4=O)s3)s2)O1 [Compound 103],4.72
8,O=C(Nc1nnc(CCSCCc2nnc(NC(=O)C3CCOCC3)s2)s1)C1CCOCC1 [Compound 108],< 4.70
9,CC(O)(C(=O)Nc1nnc(CCSCCc2nnc(NC(=O)C(C)(O)C(F)(F)F)s2)s1)C(F)(F)F (stereo not drawn) [Compound 109],< 4.70
10,CC(C)(C)OC(=O)NC(C(=O)Nc1nnc(CCSCCc2nnc(NC(=O)C(NC(=O)OC(C)(C)C)C3CCCC3)s2)s1)C1CCCC1 (stereo not drawn) [Compound 110],< 4.70
11,CC(C)(C)OC(=O)N1CCC(CC(=O)Nc2nnc(CCSCCc3nnc(NC(=O)CC4CCN(C(=O)OC(C)(C)C)CC4)s3)s2)CC1 [Compound 111],6.02
12,CC(C)(C)OC(=O)N1CCCC(CC(=O)Nc2nnc(CCSCCc3nnc(NC(=O)CC4CCCN(C(=O)OC(C)(C)C)C4)s3)s2)C1 (stereo not drawn) [Compound 112],6.29
13,CC(C)(C)OC(=O)NC(C(=O)Nc1nnc(CCCCc2nnc(NC(=O)C(NC(=O)OC(C)(C)C)C3CCCC3)s2)s1)C1CCCC1 (stereo not drawn) [Compound 113],< 4.70
14,CC(C)(C)OC(=O)N1CCC(CC(=O)Nc2nnc(CCCCc3nnc(NC(=O)CC4CCN(C(=O)OC(C)(C)C)CC4)s3)s2)CC1 [Compound 114],6.22
15,CC(C)(C)OC(=O)N1CCCC(CC(=O)Nc2nnc(CCCCc3nnc(NC(=O)CC4CCCN(C(=O)OC(C)(C)C)C4)s3)s2)C1 (stereo not drawn) [Compound 115],6.21
16,COc1ccc2c(c1)CC(C(=O)Nc1nnc(CCSCCc3nnc(NC(=O)C4Cc5cc(OC)ccc5O4)s3)s1)O2 (stereo not drawn) [Compound 117],5.62
17,CC1(C(=O)Nc2nnc(CCSCCc3nnc(NC(=O)C4(C)CCCO4)s3)s2)CCCO1 (stereo not drawn) [Compound 119],< 4.70

row,Compound,pIC50
1,O=C(Nc1nnc(CCCCc2nnc(NC(=O)C3Cc4cc(Cl)ccc4O3)s2)s1)C1Cc2cc(Cl)ccc2O1 (stereo not drawn) [Compound 120],5.74
2,COc1ccc2c(c1)CC(C(=O)Nc1nnc(CCCCc3nnc(NC(=O)C4Cc5cc(OC)ccc5O4)s3)s1)O2 (stereo not drawn) [Compound 121],5.77
3,O=C(Nc1nnc(CCCCc2nnc(NC(=O)C3Cc4cc(Br)ccc4O3)s2)s1)C1Cc2cc(Br)ccc2O1 (stereo not drawn) [Compound 122],5.46
4,CC1(C(=O)Nc2nnc(CCCCc3nnc(NC(=O)C4(C)CCCO4)s3)s2)CCCO1 (stereo not drawn) [Compound 123],4.92
5,NC(C(=O)Nc1nnc(CCSCCc2nnc(NC(=O)C(N)C3CCCC3)s2)s1)C1CCCC1 (stereo not drawn) [Compound 125],< 4.70
6,O=C(CC1CCCNC1)Nc1nnc(CCCCc2nnc(NC(=O)CC3CCCNC3)s2)s1 (stereo not drawn) [Compound 130],< 4.70
7,NC(C(=O)Nc1nnc(CCCCc2nnc(NC(=O)C(N)C3CCCC3)s2)s1)C1CCCC1 (stereo not drawn) [Compound 131],4.72
8,O=C(CC1CCNCC1)Nc1nnc(CCCCc2nnc(NC(=O)CC3CCNCC3)s2)s1 [Compound 132],< 4.70
9,O=C(Nc1nnc(CCCCc2nnc(NC(=O)C3Oc4ccccc4O3)s2)s1)C1Oc2ccccc2O1 [Compound 136],5.15
10,N[C@@H](CO)C(=O)Nc1nnc(CCCCc2nnc(NC(=O)[C@@H](N)CO)s2)s1 [Compound 140],5.47
11,CC[C@](O)(C(=O)Nc1nnc(CCCCc2nnc(NC(=O)[C@@](O)(CC)c3ccccc3)s2)s1)c1ccccc1 [Compound 143],6.24
12,O=C(Nc1nnc(CCCCc2nnc(NC(=O)[C@@H](O)Cc3ccccc3)s2)s1)[C@@H](O)Cc1ccccc1 [Compound 146],6.37
13,CO[C@@H](C(=O)Nc1nnc(CCCCc2nnc(NC(=O)[C@H](OC)c3ccccc3)s2)s1)c1ccccc1 [Compound 147],6.21
14,CO[C@H](C(=O)Nc1nnc(CCCCc2nnc(NC(=O)[C@@H](OC)c3ccccc3)s2)s1)c1ccccc1 [Compound 148],6.23
15,CCN(C(=O)Cc1ccccc1)c1nnc(CCSCCc2nnc(N(CC)C(=O)Cc3ccccc3)s2)s1 [Compound 150],< 4.70
16,CC(CO)(CO)C(=O)Nc1nnc(CCCCc2nnc(NC(=O)C(C)(CO)CO)s2)s1 [Compound 151],4.85
17,O=C(C[C@@H](O)C(=O)O)Nc1nnc(CCCCc2nnc(NC(=O)C[C@@H](O)C(=O)O)s2)s1 [Compound 154],4.72

# Other lines, results leading:
row,pIC50,Compound
1,5.00,O=C(Nc1nnc(CCSCCc2nnc(NC(=O)[C@H](O)c3ccccc3)s2)s1)[C@H](O)c1ccccc1 [Compound 81]
2,6.10,O=C(Cc1ccco1)Nc1nnc(CCSCCc2nnc(NC(=O)Cc3ccco3)s2)s1 [Compound 82]
3,5.41,O=C(CC1CC1)Nc1nnc(CCSCCc2nnc(NC(=O)CC3CC3)s2)s1 [Compound 83]
4,6.64,O=C(Cc1ccsc1)Nc1nnc(CCSCCc2nnc(NC(=O)Cc3ccsc3)s2)s1 [Compound 84]
5,6.49,O=C(Cc1ccco1)Nc1nnc(CCCCc2nnc(NC(=O)Cc3ccco3)s2)s1 [Compound 86]
6,6.74,O=C(Cc1cccs1)Nc1nnc(CCCCc2nnc(NC(=O)Cc3cccs3)s2)s1 [Compound 87]
7,6.70,O=C(Cc1ccsc1)Nc1nnc(CCCCc2nnc(NC(=O)Cc3ccsc3)s2)s1 [Compound 88]
8,< 4.70,O=C(Nc1nnc(CCSCCc2nnc(NC(=O)C3C[C@@H]3c3ccccc3)s2)s1)C1C[C@@H]1c1ccccc1 (stereo partly drawn) [Compound 91]
9,6.05,O=C(Nc1nnc(CCSCCc2nnc(NC(=O)[C@@H](O)c3ccccc3)s2)s1)[C@@H](O)c1ccccc1 [Compound 93]
10,6.25,Cc1cc(C)n(CC(=O)Nc2nnc(CCSCCc3nnc(NC(=O)Cn4nc(C)cc4C)s3)s2)n1 [Compound 97]
11,< 4.70,CC(C)(C)OC(=O)Nc1cccc(CC(=O)Nc2nnc(CCSCCc3nnc(NC(=O)Cc4cccc(NC(=O)OC(C)(C)C)c4)s3)s2)c1 [Compound 98]
12,5.09,COCCC(=O)Nc1nnc(CCCCc2nnc(NC(=O)CCOC)s2)s1 [Compound 100]
13,4.62,COCCC(=O)Nc1nnc(CCSCCc2nnc(NC(=O)CCOC)s2)s1 [Compound 101]
14,6.62,O=C(Cc1cccc(F)c1)Nc1nnc(CCSCCc2nnc(NC(=O)Cc3cccc(F)c3)s2)s1 [Compound 102]
15,< 4.70,CC1(C)OC(=O)[C@@H](CC(=O)Nc2nnc(CCSCCc3nnc(NC(=O)C[C@H]4OC(C)(C)OC4=O)s3)s2)O1 [Compound 104]
16,5.00,CCC(C)C(=O)Nc1nnc(CCSCCc2nnc(NC(=O)C(C)CC)s2)s1 (stereo not drawn) [Compound 105]

row,pIC50,Compound
1,< 4.70,O=C(CCc1ccccc1)Nc1nnc(CCCCc2nnc(NC(=O)CCc3ccccc3)s2)s1 [Compound 106]
2,5.37,CCC(C)C(=O)Nc1nnc(CCCCc2nnc(NC(=O)C(C)CC)s2)s1 (stereo not drawn) [Compound 107]
3,6.62,O=C(Cc1cccs1)Nc1nnc(CCSCCc2nnc(NC(=O)Cc3cccs3)s2)s1 [Compound 116]
4,5.30,O=C(Nc1nnc(CCSCCc2nnc(NC(=O)C3Cc4cc(Br)ccc4O3)s2)s1)C1Cc2cc(Br)ccc2O1 (stereo not drawn) [Compound 118]
5,< 4.70,O=C(CC1CCCNC1)Nc1nnc(CCSCCc2nnc(NC(=O)CC3CCCNC3)s2)s1 (stereo not drawn) [Compound 124]
6,5.74,O=C(C[C@@H](O)c1ccccc1)Nc1nnc(CCCCc2nnc(NC(=O)C[C@@H](O)c3ccccc3)s2)s1 [Compound 127]
7,4.49,CC(=O)N[C@@H](C(=O)Nc1nnc(CCSCCc2nnc(NC(=O)[C@H](NC(C)=O)c3ccccc3)s2)s1)c1ccccc1 [Compound 128]
8,< 4.70,O=C(CC1CCNCC1)Nc1nnc(CCSCCc2nnc(NC(=O)CC3CCNCC3)s2)s1 [Compound 129]
9,4.85,O=C(Nc1nnc(CCSCCc2nnc(NC(=O)C3Oc4ccccc4O3)s2)s1)C1Oc2ccccc2O1 [Compound 134]
10,< 4.70,N[C@@H](CO)C(=O)Nc1nnc(CCSCCc2nnc(NC(=O)[C@@H](N)CO)s2)s1 [Compound 137]
11,< 4.70,C[C@@H](O)[C@H](N)C(=O)Nc1nnc(CCSCCc2nnc(NC(=O)[C@@H](N)[C@@H](C)O)s2)s1 [Compound 139]
12,5.77,CC[C@](O)(C(=O)Nc1nnc(CCSCCc2nnc(NC(=O)[C@@](O)(CC)c3ccccc3)s2)s1)c1ccccc1 [Compound 141]
13,< 4.70,CC[C@@](O)(C(=O)Nc1nnc(CCSCCc2nnc(NC(=O)[C@](O)(CC)c3ccccc3)s2)s1)c1ccccc1 [Compound 142]
14,< 4.70,O=C(Cc1ccccc1)Nc1nnc(CSCc2nnc(NC(=O)Cc3ccccc3)s2)s1 [Compound 145]
15,4.82,"O=C(Cc1ccccc1)Nc1nnc(CCNCCc2nnc(NC(=O)Cc3ccccc3)s2)s1 [Compound 149, N,N′-(5,5′-(azanediyl-bis(ethane-2,1-diyl))-bis(1,3,4-thiadiazole-5,2-diyl))-bis(2-phenylacetamide) trifluoroacetic acid]"
16,6.14,"CC(CO)(CO)C(=O)Nc1nnc(CCCCc2nnc(NC(=O)Cc3cccc(F)c3)s2)s1 [Compound 152, N,N′-(5-(4-(5-(2-(3-fluorophenyl)acetamido)-1,3,4-thiadiazol-2-yl)butyl)-1,3,4-thiadiazol-2-yl)-3-hydroxy-2-(hydroxymethyl)-2-methylpropanamide]"
